Measured values from patent publication US10125134B2 (Mirati Therapeutics, Inc., priority 2016, dated 2018).
pIC50: −log10 of the molar value. Like-named read-outs stand apart in the source and are kept apart here.

Experiments:
KRas G12C = KRas G12C (Homo sapiens, UniProt P01116, C118S/C51S/C80L/G12C); experiment: KRas G12C Modification Assay (LCMS detection of covalent adduct); assay type: binding; settings: normalized percent of control; tested at 5 μM concentration for 3 hours
Procedure: A 10 μL aliquot of each protein solution was then transferred to a 384 well microtiter plate. Initial compound stocks were generated at fifty times their desired final assay concentration in DMSO.
Exemplary compounds of Formula (I) were diluted 25-fold into K-Ras Assay Buffer to a final of two times their final concentration. A 10 μL aliquot of each diluted compound solution was then added to each of the protein solutions in the microtiter plate to initiate reaction. […] At each time point, the reactions were quenched with 20 μL of a 25 mM acetic acid solution. […] Once all reactions were quenched, the plates were heat sealed and the samples were injected into a LC/MS system for data acquisition.
Samples were injected in their liquid phase onto a C-3 reverse phase column to remove assay buffer and prepare the samples for mass spectrometer. The proteins were eluted from the column using an acetonitrile gradient and fed directly into the mass analyzer. Initial raw data analysis took place in Agilent MassHunter software immediately post data acquisition.
Raw data analysis of the intact protein was exclusively a deconvolution of the multiple charge states of each protein in solution using a maximum entropy deconvolution provided in Mass Hunter. To minimize complexity, only the data over limited mass ranges were considered for analysis, with a minimum of one Dalton mass step intervals. The heights of all masses identified during raw data analysis were exported to be further analyzed in Spotfire® data analysis software.
Final data analysis was a multistep process in the Spotfire® data analysis software package. Briefly, each protein mass was calculated as a percent of the total signal of that sample, that percentage was then normalized to the percentage of signal of the protein in the absence of reactive compounds. Those normalized signals were reported as normalized percent of control (POC). […] Key: “A”≤25% POC; “B”>25% POC−≤50% POC; “C”>50% POC and ND=not determined.

[1] = test system: NCI-H358 cells (express KRas G12C), Phospho-ERK; experiment: Cellular inhibition of KRas G12C: Phospho-ERK in NCI-H358 cells; assay type: cell-based; settings: pERK(Thr202/Tyr204) normalized with GAPDH, NCI-H358 cells, 3 hours, read-out: IC50
Procedure: The cellular inhibition of KRAs G12C by exemplary compounds of the present invention was determined by measuring the amount of a downstream marker of KRas activity, phosphorylated ERK (“Phospho-ERK”).
Cells were plated in poly-D-Lysine coated 96-well plates at a concentration of 50,000 cells/well and allowed to attach for 8-12 hours. Diluted compounds were then added at a final concentration of 0.5% DMSO. After 3 hours, the medium was removed, 150 μL of 4% formaldehyde was added and the plates were incubated for 20 minutes. The plates were washed with PBS, and permeabilized using 150 μL of ice cold 100% methanol for 10 minutes. Non-specific antibody binding to the plates was blocked using 100 μL Licor Blocking Buffer (Li-Cor Biotechnology, Lincoln Nebr.) for 1 hour at room temperature. Positive control samples and samples lacking cells were parallel processed with test samples as standards.
The amount Phospho-ERK was determined using an antibody specific for the phosphorylated form of ERK and compared to the amount of GAPDH. […] The plates were incubated for 2 hours at room temperature. The plates were washed with PBS+0.05% Tween 20.
Secondary antibodies used to visualize primary antibodies were added as follows: Anti-rabbit-680 diluted 1:1000 and Anti-mouse-800 diluted 1:1000 in Licor Block+0.05% Tween 20 and incubated for 1 hour at room temperature. The plates were washed with PBS+0.05% Tween 20. A 100 μL aliquot of PBS was added to each well and the plates were read on a LICOR AERIUS plate reader.
The pERK(Thr202/Tyr204) signal was normalized with the GAPDH signal and percent of DMSO control values were calculated. IC50 values were generated using a 4 parameter fit of the dose response curve. Key: “A”≥0.0001−≤1 μM; and “B”>1 μM.

Compound	POC (KRas G12C)	pIC50 ([1]; Homo sapiens)	pIC50 ([1]; Homo sapiens, NCI-H358, 3 h)	pIC50 [1]
C=CC(=O)N1CCN(c2nc(O[C@H](C)CN(C)CC)nc3c2CCN(c2cc(O)cc4ccccc24)C3)CC1 [Example 131, 1-[4-[2-[(1R)-2-[ethyl(methyl)amino]-1-methyl-ethoxy]-7-(3-hydroxy-1-naphthyl)-6,8-dihydro-5H-pyrido[3,4-d]pyrimidin-4-yl]piperazin-1-yl]prop-2-en-1-one]	C (“C”>50% POC)	6.00 to 10.00		
C=CC(=O)N1CC2(C1)CN(c1nc(OC(C)CN(C)C)nc3c1CCN(c1cc(O)cc4ccccc14)C3)C2 (stereo not shown) [Example 18, 1-(6-(2-((1-(dimethylamino)propan-2-yl)oxy)-7-(3-hydroxynaphthalen-1-yl)-5,6,7,8-tetrahydropyrido[3,4-d]pyrimidin-4-yl)-2,6-diazaspiro[3.3]heptan-2-yl)prop-2-en-1-one]	C (“C”>50% POC)	< 6.00		
Cc1cccc2cccc(N3CCc4c(nc(OC[C@@H]5CCCN5C)nc4N4CCN(C(=O)/C=C/CN5CCOCC5)[C@@H](CC#N)C4)C3)c12 [Example 457, 2-[(2S)-4-[7-(8-methyl-1-naphthyl)-2-[[(2S)-1-methylpyrrolidin-2-yl]methoxy]-6,8-dihydro-5H-pyrido[3,4-d]pyrimidin-4-yl]-1-[(E)-4-morpholinobut-2-enoyl]piperazin-2-yl]acetonitrile]	C (“C”>50% POC)		6.00 to 10.00	
C=CC(=O)N1CCN(c2nc(OCCN3CCOCC3)nc3c2CCN(c2cc(O)cc4ccccc24)C3)CC1 [Example 117, 1-(4-(7-(3-hydroxynaphthalen-1-yl)-2-(2-morpholinoethoxy)-5,6,7,8-tetrahydropyrido[3,4-d]pyrimidin-4-yl)piperazin-1-yl)prop-2-en-1-one]	C (“C”>50% POC)		< 6.00	
C=CC(=O)N1CCN(c2nc(OCC3CCN(Cc4ccccc4)C3)nc3c2CCN(c2cc(O)cc4ccccc24)C3)CC1 (stereo not shown) [Example 189, 1-(4-(2-((1-benzylpyrrolidin-3-yl)methoxy)-7-(3-hydroxynaphthalen-1-yl)-5,6,7,8-tetrahydropyrido[3,4-d]pyrimidin-4-yl)piperazin-1-yl)prop-2-en-1-one]	C (“C”>50% POC)		< 6.00	
C=CC(=O)N1CCN(c2nc(OCCCO)nc3c2CCN(c2cccc4ccccc24)C3)CC1CC#N (stereo not shown) [Example 231, 2-(1-acryloyl-4-(2-(3-hydroxypropoxy)-7-(naphthalen-1-yl)-5,6,7,8-tetrahydropyrido[3,4-d]pyrimidin-4-yl)piperazin-2-yl)acetonitrile]	C (“C”>50% POC)	6.00 to 10.00		
C=CC(=O)N1CCN(c2nc(OC[C@@H]3CCCN3C)nc3c2CCN(c2cccc4ccc(OC)cc24)C3)CC1CC#N (stereo partly drawn) [Example 255, 2-[4-[7-(7-methoxy-1-naphthyl)-2-[[(2S)-1-methylpyrrolidin-2-yl]methoxy]-6,8-dihydro-5H-pyrido[3,4-d]pyrimidin-4-yl]-1-prop-2-enoyl-piperazin-2-yl]acetonitrile]	A (“A”≤25% POC)		< 6.00	
C=CC(=O)N1CCN(c2nc(OCCN(C)C)nc3c2CCN(c2cc(O)cc4ccccc24)C3)CC1 [Example 9, 1-(4-(2-(2-(dimethylamino)ethoxy)-7-(3-hydroxynaphthalen-1-yl)-5,6,7,8-tetrahydropyrido[3,4-d]pyrimidin-4-yl)piperazin-1-yl)prop-2-en-1-one]	C (“C”>50% POC)		< 6.00	
C=CC(=O)N1CCN(c2nc(OC[C@@H]3CCCN3C)nc3c2CCN(c2cc(OC)cc4ccccc24)C3)C[C@@H]1CC#N [Example 314, 2-[(2S)-4-[7-(3-methoxy-1-naphthyl)-2-[[(2S)-1-methylpyrrolidin-2-yl]methoxy]-6,8-dihydro-5H-pyrido[3,4-d]pyrimidin-4-yl]-1-prop-2-enoyl-piperazin-2-yl]acetonitrile]	C (“C”>50% POC)		6.00 to 10.00	
C=CC(=O)N1CCN(c2nc(OC[C@@H]3CC(F)(F)CN3C)nc3c2CCN(c2cccc4cccc(Cl)c24)C3)C[C@@H]1CC#N [Example 366, 2-[(2S)-4-[7-(8-chloro-1-naphthyl)-2-[[(2S)-4,4-difluoro-1-methyl-pyrrolidin-2-yl]methoxy]-6,8-dihydro-5H-pyrido[3,4-d]pyrimidin-4-yl]-1-prop-2-enoyl-piperazin-2-yl]acetonitrile]	C (“C”>50% POC)		6.00 to 10.00	
C=CC(=O)N1CCN(c2nc(OCCN3C[C@@H]4CC[C@H]3C4)nc3c2CCN(c2cc(O)cc4ccccc24)C3)CC1 [Example 77, 1-(4-(2-(2-((1 S,4R)-2-azabicyclo[2.2.1]heptan-2-yl)ethoxy)-7-(3-hydroxynaphthalen-1-yl)-5,6,7,8-tetrahydropyrido[3,4-d]pyrimidin-4-yl)piperazin-1-yl)prop-2-en-1-one]	C (“C”>50% POC)		6.00 to 10.00	
C=CC(=O)N1CCN(c2nc(OCCN(C)C)nc3c2CCN(c2cc(O)cc4ccccc24)C3)[C@@H](C)C1 [Example 116, (S)-1-(4-(2-(2-(dimethylamino)ethoxy)-7-(3-hydroxynaphthalen-1-yl)-5,6,7,8-tetrahydropyrido[3,4-d]pyrimidin-4-yl)-3-methylpiperazin-1-yl)prop-2-en-1-one]	C (“C”>50% POC)		6.00 to 10.00	
C=CC(=O)N1CCN(c2nc(OC[C@@H]3CCCN3C)nc3c2CCN(c2cccc(Cl)c2C(F)(F)F)C3)CC1CC#N (stereo partly drawn) [Example 277, 2-(1-acryloyl-4-(7-(3-chloro-2-(trifluoromethyl)phenyl)-2-(((S)-1-methylpyrrolidin-2-yl)methoxy)-5,6,7,8-tetrahydropyrido[3,4-d]pyrimidin-4-yl)piperazin-2-yl)acetonitrile]	C (“C”>50% POC)		6.00 to 10.00	
C=CC(=O)N1CCN(c2nc(O[C@H](C)CN3CC[C@@H](OC)C3)nc3c2CCN(c2cc(O)cc4ccccc24)C3)CC1 [Example 63, 1-(4-(7-(3-hydroxynaphthalen-1-yl)-2-(((R)-1-((R)-3-methoxypyrrolidin-1-yl)propan-2-yl)oxy)-5,6,7,8-tetrahydropyrido[3,4-d]pyrimidin-4-yl)piperazin-1-yl)prop-2-en-1-one]	C (“C”>50% POC)		< 6.00	
C=CC(=O)N1CCN(c2nc(O[C@H](C)CN3CC[C@H](OC)C3)nc3c2CCN(c2cc(O)cc4ccccc24)C3)CC1 [Example 64, 1-(4-(7-(3-hydroxynaphthalen-1-yl)-2-(((R)-1-((S)-3-methoxypyrrolidin-1-yl)propan-2-yl)oxy)-5,6,7,8-tetrahydropyrido[3,4-d]pyrimidin-4-yl)piperazin-1-yl)prop-2-en-1-one]	C (“C”>50% POC)		6.00 to 10.00	
C=CC(=O)N1CCN(c2nc(OC[C@@H]3CCN(C)C3)nc3c2CCN(c2ccccc2C(F)(F)F)C3)CC1CC#N (stereo partly drawn) [Example 298, 2-(1-acryloyl-4-(2-(((R)-1-methylpyrrolidin-3-yl)methoxy)-7-(2-(trifluoromethyl)phenyl)-5,6,7,8-tetrahydropyrido[3,4-d]pyrimidin-4-yl)piperazin-2-yl)acetonitrile]	C (“C”>50% POC)			6.00 to 10.00
C=CC(=O)N1CCN(c2nc(OC[C@@H]3CCCN3C)nc3c2CCN(c2cccc4ccc(F)cc24)C3)C[C@@H]1CC#N [Example 333, 2-[(2S)-4-[7-(7-fluoro-1-naphthyl)-2-[[(2S)-1-methylpyrrolidin-2-yl]methoxy]-6,8-dihydro-5H-pyrido[3,4-d]pyrimidin-4-yl]-1-prop-2-enoyl-piperazin-2-yl]acetonitrile]	C (“C”>50% POC)		6.00 to 10.00	
